Values of other authors as cited in Sander's compilation of Henry's law constants (doi:10.1063/1.1562632).
Where “and” joins values, the source holds several entries; their conditions need not be identical. Identical values can stand only once.

Assay: Henry solubility constant Hcp at 298.15 K (mol/(m3 Pa))
Details: reference: Li et al. (2003); cited value

SMILES	Henry solubility constant Hcp
Clc1cc(Cl)c(-c2ccc(Cl)c(Cl)c2Cl)cc1Cl [2,2',3,4,4',5'-hexachlorobiphenyl]	0.025 and 0.033
Clc1ccc(Cl)c(-c2cc(Cl)c(Cl)cc2Cl)c1 [2,2',4,5,5'-pentachlorobiphenyl]	0.032 and 0.041
Clc1cc(-c2ccccc2)c(Cl)c(Cl)c1Cl [2,3,4,5-tetrachlorobiphenyl]	0.049 and 0.05
Clc1cc(Cl)c(-c2c(Cl)cc(Cl)cc2Cl)c(Cl)c1 [2,2',4,4',6,6'-hexachlorobiphenyl]	0.013 and 0.011
Clc1ccc(-c2cc(Cl)c(Cl)cc2Cl)cc1Cl [2,3',4,4',5-pentachlorobiphenyl]	0.031 and 0.069
Clc1cc(Cl)c(-c2cc(Cl)c(Cl)cc2Cl)cc1Cl [2,2',4,4',5,5'-hexachlorobiphenyl]	0.04 and 0.051
Clc1cc(-c2cc(Cl)c(Cl)c(Cl)c2Cl)c(Cl)c(Cl)c1Cl [2,2',3,3',4,4',5,5'-octachlorobiphenyl]	0.15 and 0.23
Clc1ccc(-c2ccc(Cl)c(Cl)c2Cl)cc1Cl [2,3,3',4,4'-pentachlorobiphenyl]	0.03 and 0.072
Clc1ccc(Cl)c(-c2cc(Cl)ccc2Cl)c1 [2,2',5,5'-tetrachlorobiphenyl]	0.035 and 0.04
Clc1ccc(-c2ccc(Cl)cc2)cc1 [4,4'-dichlorobiphenyl]	0.07 and 0.075
Clc1ccc(-c2ccccc2Cl)cc1 [2,4'-dichlorobiphenyl]	0.038 and 0.044
Clc1ccc(-c2cc(Cl)ccc2Cl)cc1 [2,4',5-trichlorobiphenyl]	0.027 and 0.029
